From USRE36831E, “Iron-pyridone complexes for anemia” (priority 1983, dated 2000)

test system: human erythrocytes; assay: not given; conditions: pH 7.4

Row | Molecule | Amount of complex entering erythrocytes [n.mole]
1 | CCOC(=O)Cn1cccc([O-])c1=O.CCOC(=O)Cn1cccc([O-])c1=O.CCOC(=O)Cn1cccc([O-])c1=O.[Fe+3] [Fe^III complex of 1-ethoxycarbonylmethyl-3-hydroxypyrid-2-one] | 10
2 | COC(=O)Cn1cccc([O-])c1=O.COC(=O)Cn1cccc([O-])c1=O.COC(=O)Cn1cccc([O-])c1=O.[Fe+3] [Fe^III complex of 3-hydroxy-1-methoxycarbonylmethylpyrid-2-one] | 230
3 | Cc1c([O-])c(=O)ccn1CCCCO.Cc1c([O-])c(=O)ccn1CCCCO.Cc1c([O-])c(=O)ccn1CCCCO.[Fe+3] [Fe^III complex of 3-hydroxy-1-(4'-hydroxybutyl)-2-methylpyrid-4-one] | 40
4 | Cc1c([O-])c(=O)ccn1CCN.Cc1c([O-])c(=O)ccn1CCN.Cc1c([O-])c(=O)ccn1CCN.[Fe+3] [Fe^III complex of 1-(2'-aminoethyl)-3-hydroxy-2-methylpyrid-4-one] | < 5
5 | Fe^III complex of 1-carboxymethyl-3-hydroxy-2-methylpyrid-4-one | < 5
6 | Cn1cc([O-])c(=O)cc1CO.Cn1cc([O-])c(=O)cc1CO.Cn1cc([O-])c(=O)cc1CO.[Fe+3] [Fe^III complex of 3-hydroxy-6-hydroxymethyl-1-methylpyrid-4-one] | < 5

Other lines, results leading:

Row | Amount of complex entering erythrocytes [n.mole] | Molecule
7 | 25 | COC(=O)CCn1ccc(=O)c([O-])c1C.COC(=O)CCn1ccc(=O)c([O-])c1C.COC(=O)CCn1ccc(=O)c([O-])c1C.[Fe+3] [Fe^III complex of 3-hydroxy-1-(2'-methoxycarbonylethyl)-2-methylpyrid-4-one]
8 | < 5 | O=C(O)Cn1cccc([O-])c1=O.O=C(O)Cn1cccc([O-])c1=O.O=C(O)Cn1cccc([O-])c1=O.[Fe+3] [Fe^III complex of 1-carboxymethyl-3-hydroxypyrid-2-one]
9 | 44 | Cc1c([O-])c(=O)ccn1CCCCCO.Cc1c([O-])c(=O)ccn1CCCCCO.Cc1c([O-])c(=O)ccn1CCCCCO.[Fe+3] [Fe^III complex of 3-hydroxy-1-(5'-hydroxypentyl)-2-methylpyrid-4-one]
10 | 26 | CCn1cc([O-])c(=O)cc1CO.CCn1cc([O-])c(=O)cc1CO.CCn1cc([O-])c(=O)cc1CO.[Fe+3] [Fe^III complex of 1-ethyl-3-hydroxy-6-hydroxymethylpyrid-4-one]
11 | 30 | Cc1c([O-])c(=O)ccn1CCCO.Cc1c([O-])c(=O)ccn1CCCO.Cc1c([O-])c(=O)ccn1CCCO.[Fe+3] [Fe^III complex of 3-hydroxy-1-(3'-hydroxypropyl)-2-methylpyrid-4-one]
12 | 240 | CC(=O)n1cccc([O-])c1=O.CC(=O)n1cccc([O-])c1=O.CC(=O)n1cccc([O-])c1=O.[Fe+3] [Fe^III complex of 1-acetyl-3-hydroxypyrid-2-one]
13 | 19 | Cc1c([O-])c(=O)ccn1CCC(=O)O.Cc1c([O-])c(=O)ccn1CCC(=O)O.Cc1c([O-])c(=O)ccn1CCC(=O)O.[Fe+3] [Fe^III complex of 1-(2'-carboxyethyl)-3-hydroxy-2-methylpyrid-4-one]
14 | 105 | CCCCNC(=O)Cn1cccc([O-])c1=O.CCCCNC(=O)Cn1cccc([O-])c1=O.CCCCNC(=O)Cn1cccc([O-])c1=O.[Fe+3] [Fe^III complex of 1-(N-butylcarbamoylmethyl)-3-hydroxypyrid-2-one]
15 | 52 | CC(C)NC(=O)Cn1cccc([O-])c1=O.CC(C)NC(=O)Cn1cccc([O-])c1=O.CC(C)NC(=O)Cn1cccc([O-])c1=O.[Fe+3] [Fe^III complex of 3-hydroxy-1-[N-(2'-methylethyl)-carbamoylmethyl]-pyrid-2-one]
16 | < 5 | Cc1c([O-])c(=O)ccn1CCO.Cc1c([O-])c(=O)ccn1CCO.Cc1c([O-])c(=O)ccn1CCO.[Fe+3] [Fe^III complex of 3-hydroxy-1-(2'-hydroxyethyl)-2-methylpyrid-4-one]

test system: not listed separately; assay: Partition coefficient between n-octanol and aqueous tris hydrochloride (20 mM, pH 7.4) at 20° C.; conditions: free compound, 10^-4 M; n-octanol/tris hydrochloride 20 mM pH 7.4, 20° C.
Protocol: (§1) The partition coefficient Kpart, being the ratio (concentration of compound in n-octanol)/(concentration of compound in aqueous phase) on partition between n-octanol and aqueous tris hydrochloride (20 mM, pH 7.4; tris represents 2-amino-2-hydroxymethylpropane 1,3-diol), is measured at 20° C. for the 3:1 iron(III) complexes of each of the compounds listed in Table 1 and also for the iron-free compound (at 10^-4 M) by spectrophotometry. The solutions of the complexes are either produced by dissolving the pre-formed complex in the aqueous tris hydrochloride or are prepared in situ in the buffer by the admixture of a 3:1 molar ratio of the pyridone and ferric chloride, the pH thereafter being readjusted to 7.4 if necessary (the same product will be obtained in the buffer solution irrespective of whether the pyridone used is in a salt form or not). Acid washed glassware is used throughout and, following mixing of 5 ml of the 10^-4 M aqueous solution with 5 ml of n-octanol for 1 minute, the aqueous n-octanol mixture is centrifuged at 1,000 g for 30 seconds. The two resulting phases are separated for a concentration determination by spectrophotometry on each. For the free hydroxypyridones, the range 220-340 nm is used for concentration determinations whilst for the iron complexes the range 340-640 nm is used.

Row | Molecule | Partition coefficient KOUT, free compound
17 | CCCCNC(=O)Cn1cccc(O)c1=O [1-(N-butylcarbamoylmethyl)-3-hydroxypyrid-2-one] | 1.89
18 | CCNC(=O)Cn1cccc(O)c1=O [1-(N-ethylcarbamoylmethyl)-3-hydroxypyrid-2-one] | 0.12
19 | CCCNC(=O)Cn1cccc(O)c1=O [3-hydroxy-1-(N-propylcarbamoylmethyl)-pyrid-2-one] | 0.35

Results, then the molecule that gave them:

Row | Partition coefficient KOUT, free compound | Molecule
20 | 0.34 | CC(C)NC(=O)Cn1cccc(O)c1=O [3-hydroxy-1-[N-(2'-methylethyl)-carbamoylmethyl]-pyrid-2-one]
21 | 0.06 | CNC(=O)Cn1cccc(O)c1=O [3-hydroxy-1-(N-methylcarbamoylmethyl)pyrid-2-one]

same assay, conditions: n-octanol partition, in words

Row | Kpart values (in words) | Molecule
22 | low Kpart values | Cc1c([O-])c(=O)ccn1CCN.Cc1c([O-])c(=O)ccn1CCN.Cc1c([O-])c(=O)ccn1CCN.[Fe+3] [Fe^III complex of 1-(2'-aminoethyl)-3-hydroxy-2-methylpyrid-4-one]
23 | low Kpart values | Fe^III complex of 1-carboxymethyl-3-hydroxy-2-methylpyrid-4-one

same assay, conditions: n-octanol/tris buffer, pH 7.4

Row | logD at 100 µM | Molecule
24 | < -2.7 | Cc1c(O)c(=O)ccn1CCO [3-hydroxy-1-(2'-hydroxyethyl)-2-methylpyrid-4-one]
25 | -0.854 | Cc1c(O)c(=O)ccn1CCCCO [3-hydroxy-1-(4'-hydroxybutyl)-2-methylpyrid-4-one]

test system: haemoglobin; assay: Ability of complexes to bind to haemoglobin (elution profile of 59Fe label on PD-10 column); assay type: binding; conditions: 59Fe-labelled 3:1 neutral complex, 1 mM
Protocol: The ability of the complexes of 1-acetyl-3-hydroxypyrid-2-one and 1-ethyl-3-hydroxy-6-hydroxymethylpyrid-4-one to bind to haemoglobin is investigated by studying the elution profile of a ^59 Fe label when a mixture of haemoglobin and the ^59 Fe-labelled 3:1 (pyridone:iron) neutral complex (at 1 mM concentration) is applied to a PD-10 column (Sephadex […] gel permeation column - Pharmacia).

Row | Molecule | haemoglobin binding ability
26 | CCn1cc([O-])c(=O)cc1CO.CCn1cc([O-])c(=O)cc1CO.CCn1cc([O-])c(=O)cc1CO.[Fe+3] [Fe^III complex of 1-ethyl-3-hydroxy-6-hydroxymethylpyrid-4-one] | no detectable haemoglobin binding ability
27 | CC(=O)n1cccc([O-])c1=O.CC(=O)n1cccc([O-])c1=O.CC(=O)n1cccc([O-])c1=O.[Fe+3] [Fe^III complex of 1-acetyl-3-hydroxypyrid-2-one] | no detectable haemoglobin binding ability

test system: not given; assay: not given; conditions: n-octanol/tris buffer, 100 µM, pH 7.4

Row | Partition coefficient KOUT, free compound | Molecule
28 | 0.03 | 3-hydroxy-5-hydroxymethyl-1-methylpyrid-4-one

test system: not listed separately; assay: physchem; conditions: n-octanol/tris buffer, pH 7.4
Protocol: as §1

Row | Molecule | logD at 100 µM
29 | CCn1cc(O)c(=O)cc1CO [1-ethyl-3-hydroxy-6-hydroxymethylpyrid-4-one] | -1.22
30 | Cc1c(O)c(=O)ccn1CCN [1-(2'-aminoethyl)-3-hydroxy-2-methylpyrid-4-one] | < -2.7
31 | Cc1c(O)c(=O)ccn1CCC(=O)O [1-(2'-carboxyethyl)-3-hydroxy-2-methylpyrid-4-one] | -0.347
32 | CCOC(=O)Cn1cccc(O)c1=O [1-ethoxycarbonylmethyl-3-hydroxypyrid-2-one] | -0.301
33 | CC(=O)OCCCCCn1ccc(=O)c(O)c1C [1-(5'-acetoxypentyl)-3-hydroxy-2-methylpyrid-4-one] | -0.347

Continued, values first:

Row | logD at 100 µM | Molecule
34 | -0.699 | COC(=O)Cn1cccc(O)c1=O [3-hydroxy-1-methoxycarbonylmethylpyrid-2-one]
35 | -0.26 | CC(=O)n1cccc(O)c1=O [1-acetyl-3-hydroxypyrid-2-one]
36 | < -2.7 | Cc1c(O)c(=O)ccn1CC(=O)O [1-carboxymethyl-3-hydroxy-2-methylpyrid-4-one]
37 | -0.553 | Cc1c(O)c(=O)ccn1CCCCCO [3-hydroxy-1-(5'-hydroxypentyl)-2-methylpyrid-4-one]

test system: apotransferrin; assay: Ability of iron complexes to donate iron to apotransferrin; assay type: biochemical; conditions: apotransferrin 10^-4 M, complex 10^-4 M, tris 50 mM pH 7.4, 37° C., 10 minutes
Protocol: Apotransferrin (10^-4 M) and the iron complex of 1-ethyl-3-hydroxy-6-hydroxymethylpyrid-4-one (10^-4 M; prepared as described in Example 1) were incubated together in tris hydrochloride (50 mM, buffered to pH 7.4) at 37° C. for 10 minutes when a 1 ml aliquot was removed from the medium and added to a PD10 column. 0.5 ml fractions were collected directly into scintillation vials for counting. […] A similar value was obtained with the complex of 3-hydroxy-1-(2'-hydroxyethyl)-2-methylpyrid-4-one but with the complex of 1-acetyl-3-hydroxypyrid-2-one over 80% of the iron was removed within 10 minutes.

Row | Molecule | iron removed from the iron complex
38 | CCn1cc([O-])c(=O)cc1CO.CCn1cc([O-])c(=O)cc1CO.CCn1cc([O-])c(=O)cc1CO.[Fe+3] [Fe^III complex of 1-ethyl-3-hydroxy-6-hydroxymethylpyrid-4-one] | over 45%
39 | CC(=O)n1cccc([O-])c1=O.CC(=O)n1cccc([O-])c1=O.CC(=O)n1cccc([O-])c1=O.[Fe+3] [Fe^III complex of 1-acetyl-3-hydroxypyrid-2-one] | over 80%

test system: inverted rat jejunal sac; assay: In vitro permeation of rat jejunal sac by iron complexes (iron uptake into serosal space); conditions: relative to ferric chloride as 1; Krebs Ringer buffer, 37° C., up to 1 hour
Excerpt: Rats (male Sprague Dawley, 60 g) were killed and the jejunum removed, everted and cut into three segments (4 cm length). […] The contents of the sac were counted for ^59 Fe and measured spectrophotometrically.

Row | Molecule | Relative Iron Uptake
40 | O=C([O-])[C@H](O)[C@@H](O)[C@H](O)[C@H](O)CO.O=C([O-])[C@H](O)[C@@H](O)[C@H](O)[C@H](O)CO.[Fe+2] [Fe^II gluconate] | 1.6
41 | [Cl][Fe]([Cl])[Cl] [FeCl3, ferric chloride] | 1
